Test results taken from patent US8501446B2 (Vertex Pharmaceuticals Incorporated, priority 2004, dated 2013).

What was measured:
Format in all cases: biochemical
ROCK I (AA 6-553) = biological target: T1, ROCK I (AA 6-553) (Homo sapiens, UniProt Q13464); experiment: ROCK inhibition assay, standard coupled enzyme system ("Enzyme"); settings: enzyme-linked assay
T1 construct: ROCK I (AA 6-553)
Method in brief: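 ROCK I (AA 6-553) at 45 nM and 30 °C with 45 μM ATP and 200 μM peptide, in 100 mM HEPES pH 7.5, 10 mM MgCl2, 25 mM NaCl, 2 mM DTT, 1.5% DMSO. ADP output read by a PK/LDH coupled system: 2.5 mM PEP, 350 μM NADH, 30 μg/ml PK, 10 μg/ml LDH.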

[1] = biological target: T2, full length Aurora-A (AA 1-403) (Homo sapiens, UniProt O14965); experiment: Aurora-A inhibition assay, standard coupled enzyme system; settings: average Ki if more than one value determined
T2 construct: full length Aurora-A (AA 1-403)
T2 sequence (O14965 1-403): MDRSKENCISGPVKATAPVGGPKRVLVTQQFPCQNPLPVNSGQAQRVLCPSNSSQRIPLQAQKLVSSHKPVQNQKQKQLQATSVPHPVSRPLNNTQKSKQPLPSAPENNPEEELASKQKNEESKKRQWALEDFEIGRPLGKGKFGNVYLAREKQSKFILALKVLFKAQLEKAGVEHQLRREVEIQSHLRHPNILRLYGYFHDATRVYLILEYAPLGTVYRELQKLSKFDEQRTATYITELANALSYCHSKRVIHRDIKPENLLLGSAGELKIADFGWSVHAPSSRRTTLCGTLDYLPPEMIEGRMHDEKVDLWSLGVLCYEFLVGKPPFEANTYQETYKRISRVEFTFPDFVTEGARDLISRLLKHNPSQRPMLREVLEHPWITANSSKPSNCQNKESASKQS

Aurora-C = biological target: T3, Aurora-C (Homo sapiens, UniProt Q9UQB9); experiment: Aurora-C inhibition assay, coupled enzyme system as for Aurora-A; settings: average Ki if more than one value determined
T3 sequence (Q9UQB9 1-309): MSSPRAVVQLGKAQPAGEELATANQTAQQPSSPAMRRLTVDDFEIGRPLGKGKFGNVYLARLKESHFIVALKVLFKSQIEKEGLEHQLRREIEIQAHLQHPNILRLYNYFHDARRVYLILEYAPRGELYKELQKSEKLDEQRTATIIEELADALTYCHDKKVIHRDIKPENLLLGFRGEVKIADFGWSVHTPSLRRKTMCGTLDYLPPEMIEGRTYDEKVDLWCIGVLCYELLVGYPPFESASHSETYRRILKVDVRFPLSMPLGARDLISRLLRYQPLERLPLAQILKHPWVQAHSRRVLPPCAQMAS
Method: Compounds were screened for their ability to inhibit full length Aurora-A (AA 1-403) activity using a standard coupled enzyme system (Fox et al., Protein Sci. 7, pp. 2249 (1998)). Reactions were carried out in a solution containing 100 mM HEPES (pH 7.5), 10 mM MgCl2, 25 mM NaCl, 300 μM NADH, 1 mM DTT and 3% DMSO. Final substrate concentrations in the assay were 200 μM ATP (Sigma Chemicals, St Louis, Mo.) and 800 μM peptide (LRRASLG, American Peptide, Sunnyvale, Calif.). Reactions were carried out at 30° C. and 35 nM Aurora-A. Final concentrations of the components of the coupled enzyme system were 2.5 mM phosphoenolpyruvate, 200 μM NADH, 60 μg/ml pyruvate kinase and 20 μg/ml lactate dehydrogenase.
(§1) An assay stock buffer solution was prepared containing all of the reagents listed above with the exception of ATP and the test compound of interest. The assay stock buffer solution (60 μl) was incubated in a 96 well plate with 2 μl of the test compound of interest at final concentrations spanning 0.002 μM to 30 μM at 30° C. for 10 min. Typically, a 12 point titration was conducted by preparing serial dilutions (from 1 mM compound stocks) with DMSO of the test compounds in daughter plates. The reaction was initiated by the addition of 5 μl of ATP (final concentration 200 μM). Rates of reaction were obtained using a Molecular Devices Spectramax plate reader (Sunnyvale, Calif.) over 10 min at 30° C. The Ki values were determined from the rate data as a function of inhibitor concentration using computerized nonlinear regression (Prism 3.0, Graphpad Software, San Diego, Calif.). Aurora-C activity was screened in a similar manner using Aurora-C protein. Aurora-B activity was screened using a radioactive assay, such as described in Examples 1 and 2, but using Aurora-B protein.

Aurora-B = Aurora-B (Homo sapiens, UniProt Q96GD4); experiment: Aurora-B inhibition assay, radioactive assay; settings: average Ki if more than one value determined
Method: Compounds were screened for their ability to inhibit JAK3 using a standard radioactive enzyme assay. 1.5 μL/well of a DMSO stock containing serial dilutions of a compound of the present invention (concentrations ranging from 667 μM to 46 nM) was placed in a 96 well polycarbonate plate. 50 μL per well of kinase buffer (100 mM HEPES (pH 7.4), 10 mM MgCl2, 25 mM NaCl, 1 mM DTT, and 0.01% bovine serum albumin (BSA)) containing 2 μM poly(Glu)4Tyr and 10 μM ATP was also added to the plate. To initiate the reaction, 50 μL kinase buffer containing 2 nM JAK3 enzyme was added. Final ATP concentration was 5 μM [γ-^33P] ATP (200 μCi ^33P ATP/μmol ATP (Perkin Elmer, Cambridge, Mass.). After 20 minutes at room temperature (25° C.), the reaction was stopped by adding 50 μL 20% trichloroacetic acid (TCA)/0.4 mM ATP to each well. The entire content of each well was then transferred to a 96 well glass fiber filter plate using a TomTek Cell Harvester. After washing, 60 μL scintillation fluid was added and ^33P incorporation detected using a Perkin Elmer TopCount. After removing mean background values for all of the data points the data was fit using Prism software to obtain a Ki(app). Inhibition of JAK2 was measured as above except that final poly(Glu)4Tyr concentration was 15 μM and final ATP concentration was 12 μM.
Some compounds were screened for their ability to inhibit ROCK using a standard radioactive enzyme assay. Assays were carried out in a solution containing 100 mM HEPES (pH 7.5), 10 mM MgCl2, 25 mM NaCl, 2 mM DTT, and 1.5% DMSO. Final substrate concentrations in the assay were 13 μM [γ-^33P] ATP (25 mCi ^33P ATP/mmol ATP, Perkin Elmer, Cambridge, Mass./Sigma Chemicals, St Louis, Mo.) and 27 μM Myelin Basic Protein (MBP). Final enzyme concentration in the assay was 5 nM ROCK. Assays were carried out at room temperature. 1.5 μl of DMSO stock containing serial dilutions of the compound of the present invention (concentrations ranging from 10 μM to 2.6 nM) was placed in a 96 well plate. 50 μl of Solution 1 (100 mM HEPES (pH 7.5), 10 mM MgCl2, […]) was added to the plate. The reaction was initiated by addition of 50 μl of Solution 2 (100 mM HEPES (pH 7.5), 10 mM MgCl2, 4 mM DTT, […] and 10 nM ROCK). After 2 hours the reaction was quenched with 50 μL of 30% trichloroacetic acid (TCA, Fisher) containing 9 mM ATP. Transfer of 140 μL of the quenched reaction to a glass fiber filter plate (Corning, Cat. No. 3511) was followed by washing 3 times with 5% TCA. 50 μL of Optima Gold scintillation fluid (Perkin Elmer) was added and the plates were counted on a Top Count (Perkin Elmer). After removing mean background values for all of the data points the data was fit using Prism software to obtain a Ki(app).
as §1

JAK3 = biological target: T4, JAK3 (Homo sapiens, UniProt P52333); experiment: JAK3 inhibition assay (standard radioactive enzyme assay); settings: average Ki if more than one value determined
T4 sequence (P52333 1-1124): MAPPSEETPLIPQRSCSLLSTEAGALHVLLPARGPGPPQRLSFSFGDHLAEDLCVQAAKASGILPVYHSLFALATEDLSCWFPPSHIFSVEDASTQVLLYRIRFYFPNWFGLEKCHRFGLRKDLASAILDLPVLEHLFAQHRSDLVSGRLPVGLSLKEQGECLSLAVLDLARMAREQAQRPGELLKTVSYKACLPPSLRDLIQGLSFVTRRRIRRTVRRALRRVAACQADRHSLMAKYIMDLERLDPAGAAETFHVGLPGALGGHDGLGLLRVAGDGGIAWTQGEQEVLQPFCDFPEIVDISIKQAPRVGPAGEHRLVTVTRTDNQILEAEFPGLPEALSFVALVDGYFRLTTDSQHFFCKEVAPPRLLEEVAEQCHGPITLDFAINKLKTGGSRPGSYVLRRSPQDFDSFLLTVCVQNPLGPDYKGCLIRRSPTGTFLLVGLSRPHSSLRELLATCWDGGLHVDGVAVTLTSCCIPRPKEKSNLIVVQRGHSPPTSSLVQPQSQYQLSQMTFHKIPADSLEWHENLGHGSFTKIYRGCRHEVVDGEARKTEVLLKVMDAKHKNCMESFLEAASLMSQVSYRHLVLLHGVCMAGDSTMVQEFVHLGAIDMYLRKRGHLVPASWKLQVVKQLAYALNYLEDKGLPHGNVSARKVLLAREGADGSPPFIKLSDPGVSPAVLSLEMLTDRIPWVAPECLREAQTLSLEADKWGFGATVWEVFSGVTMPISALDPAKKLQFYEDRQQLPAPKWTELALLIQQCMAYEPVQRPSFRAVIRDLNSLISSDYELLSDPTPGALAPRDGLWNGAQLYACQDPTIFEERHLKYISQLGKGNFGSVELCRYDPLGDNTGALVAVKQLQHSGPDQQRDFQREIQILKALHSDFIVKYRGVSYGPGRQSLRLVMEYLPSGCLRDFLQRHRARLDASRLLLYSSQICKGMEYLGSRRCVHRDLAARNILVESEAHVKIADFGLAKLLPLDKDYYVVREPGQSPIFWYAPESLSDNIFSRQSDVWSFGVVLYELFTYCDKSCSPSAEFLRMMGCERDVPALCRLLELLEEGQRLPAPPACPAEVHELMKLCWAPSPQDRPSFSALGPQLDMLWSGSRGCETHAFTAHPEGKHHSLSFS

JAK2 = JAK2 (Homo sapiens, UniProt O60674); experiment: JAK2 inhibition assay (radioactive enzyme assay, as for JAK3); settings: average Ki if more than one value determined
Method in brief: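 Both kinases: poly(Glu)4Tyr substrate in 100 mM HEPES pH 7.4, 10 mM MgCl2, 1 mM DTT. Run 20 min at 25° C, TCA stop, filter-bound ³³P counted, Ki(app) fitted after background subtraction. JAK3: final [γ-³³P]ATP 5 μM, enzyme added as 2 nM solution. JAK2: final poly(Glu)4Tyr 15 μM, final ATP 12 μM.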

Aurora-B, sequence (Q96GD4 whole entry): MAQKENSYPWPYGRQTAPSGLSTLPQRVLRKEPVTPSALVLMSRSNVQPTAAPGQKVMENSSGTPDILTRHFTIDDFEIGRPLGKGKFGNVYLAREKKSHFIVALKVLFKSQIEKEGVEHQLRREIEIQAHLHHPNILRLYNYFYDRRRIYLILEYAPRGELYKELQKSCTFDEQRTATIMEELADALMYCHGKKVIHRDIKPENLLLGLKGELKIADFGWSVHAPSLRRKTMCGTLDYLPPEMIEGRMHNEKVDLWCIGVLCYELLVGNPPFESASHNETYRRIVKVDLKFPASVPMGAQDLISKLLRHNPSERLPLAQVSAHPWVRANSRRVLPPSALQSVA
T1 sequence (Q13464 6-553, species assumed): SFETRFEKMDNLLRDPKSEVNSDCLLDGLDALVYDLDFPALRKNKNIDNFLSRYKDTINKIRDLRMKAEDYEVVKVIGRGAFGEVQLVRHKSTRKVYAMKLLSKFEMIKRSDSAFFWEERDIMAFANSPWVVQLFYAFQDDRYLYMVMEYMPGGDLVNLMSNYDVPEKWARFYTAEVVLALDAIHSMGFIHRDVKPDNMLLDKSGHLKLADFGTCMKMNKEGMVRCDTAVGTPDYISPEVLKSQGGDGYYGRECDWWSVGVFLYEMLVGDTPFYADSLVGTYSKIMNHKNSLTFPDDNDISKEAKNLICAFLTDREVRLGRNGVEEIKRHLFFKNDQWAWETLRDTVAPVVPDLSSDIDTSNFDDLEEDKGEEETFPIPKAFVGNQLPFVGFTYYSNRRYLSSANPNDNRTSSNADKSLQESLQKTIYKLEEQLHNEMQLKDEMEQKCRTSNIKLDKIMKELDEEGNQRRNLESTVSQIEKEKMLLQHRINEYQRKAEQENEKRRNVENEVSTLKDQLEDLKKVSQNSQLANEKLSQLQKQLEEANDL
JAK2, sequence (O60674 whole entry, species assumed): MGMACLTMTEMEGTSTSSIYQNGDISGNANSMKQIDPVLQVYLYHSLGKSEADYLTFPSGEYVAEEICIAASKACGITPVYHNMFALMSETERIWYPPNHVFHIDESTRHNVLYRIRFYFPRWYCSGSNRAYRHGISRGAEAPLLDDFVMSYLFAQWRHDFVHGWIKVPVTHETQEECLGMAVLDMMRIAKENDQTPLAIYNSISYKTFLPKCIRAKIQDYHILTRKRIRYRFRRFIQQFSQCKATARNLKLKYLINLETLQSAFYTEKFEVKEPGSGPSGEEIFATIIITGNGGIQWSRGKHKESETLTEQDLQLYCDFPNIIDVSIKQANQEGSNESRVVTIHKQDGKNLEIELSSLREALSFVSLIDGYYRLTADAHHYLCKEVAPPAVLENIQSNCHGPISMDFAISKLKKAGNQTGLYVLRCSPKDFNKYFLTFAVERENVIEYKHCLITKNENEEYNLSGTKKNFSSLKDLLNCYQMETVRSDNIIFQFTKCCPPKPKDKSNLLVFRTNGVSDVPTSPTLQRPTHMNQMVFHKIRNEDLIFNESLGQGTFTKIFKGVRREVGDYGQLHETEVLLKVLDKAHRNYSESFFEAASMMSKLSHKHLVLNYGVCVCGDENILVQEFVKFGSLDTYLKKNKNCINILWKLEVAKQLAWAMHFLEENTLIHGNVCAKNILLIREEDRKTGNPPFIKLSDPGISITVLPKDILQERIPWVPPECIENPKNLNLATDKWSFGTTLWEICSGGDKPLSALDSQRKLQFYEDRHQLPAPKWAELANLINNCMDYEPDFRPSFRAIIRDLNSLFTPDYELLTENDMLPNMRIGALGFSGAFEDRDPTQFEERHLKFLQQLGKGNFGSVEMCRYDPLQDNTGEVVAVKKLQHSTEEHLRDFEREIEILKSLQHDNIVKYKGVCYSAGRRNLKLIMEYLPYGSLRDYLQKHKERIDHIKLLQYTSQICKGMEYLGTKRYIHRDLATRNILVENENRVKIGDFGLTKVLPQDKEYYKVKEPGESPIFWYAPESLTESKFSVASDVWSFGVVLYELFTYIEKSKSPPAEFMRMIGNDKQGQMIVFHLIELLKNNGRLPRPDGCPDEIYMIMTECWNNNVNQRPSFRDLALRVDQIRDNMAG

Row | Ki (ROCK I (AA 6-553)) [nM] | Ki [1] [nM] | Ki (Aurora-C) [nM] | Ki (Aurora-B) [nM] | Ki (JAK3) [nM] | Ki (JAK2) [nM] | SMILES
1 | 500 to 5000 | < 500 | < 500 | < 500 |  |  | Clc1ccc(CNc2ccnc(-c3c[nH]c4ncc(Cl)cc34)n2)cc1 [Compound 237]
2 | 500 to 5000 | < 500 | < 500 |  |  |  | C[C@H](Nc1nc(-c2c[nH]c3ncc(Cl)cc23)ncc1F)c1cccc(NC(=O)OC(C)(C)C)c1 [Compound 331]
3 | 500 to 5000 | < 500 | < 500 |  | < 500 |  | C[C@H](Nc1nc(-c2c[nH]c3ncc(Cl)cc23)ncc1F)C(=O)NCCO [Compound 391]
4 | 500 to 5000 | < 500 | < 500 |  |  |  | O=C(CNc1nc(-c2c[nH]c3ncc(Cl)cc23)ncc1F)NCC(F)(F)F [Compound 400]
5 |  | < 500 | < 500 | 500 to 5000 |  |  | CCS(=O)(=O)NCCNC(=O)[C@H](C)Nc1nc(-c2c[nH]c3ncc(Cl)cc23)ncc1F [Compound 445]
6 |  | < 500 | < 500 | < 500 |  |  | C[C@H](Nc1nc(-c2c[nH]c3ncc(Cl)cc23)ncc1F)C(=O)NCCNC(=O)OCc1ccccc1 [Compound 458]
7 |  | < 500 | < 500 | < 500 |  |  | C[C@H](Nc1nc(-c2c[nH]c3ncc(Cl)cc23)ncc1F)C(=O)NCCC#N [Compound 461]

Continued, compound first:

Row | SMILES | Ki (ROCK I (AA 6-553)) [nM] | Ki [1] [nM] | Ki (Aurora-C) [nM] | Ki (Aurora-B) [nM] | Ki (JAK3) [nM] | Ki (JAK2) [nM]
8 | Fc1cnc(-c2c[nH]c3ncc(Cl)cc23)nc1NCc1ccc(Cl)cc1 [Compound 238] | 500 to 5000 | < 500 | < 500 | < 500 |  | 
9 | C[C@H](Nc1cccc(-c2c[nH]c3ncc(Cl)cc23)n1)c1ccccc1 [Compound 252] | 500 to 5000 | < 500 | < 500 |  |  | 
10 | C[C@@H](Nc1cccc(-c2c[nH]c3ncc(Cl)cc23)n1)c1ccccc1 [Compound 260] | 500 to 5000 | < 500 | < 500 |  |  | 
11 | COc1cnc(-c2c[nH]c3ncc(Cl)cc23)nc1N[C@@H](C)C(=O)NCC(F)(F)F [Compound 407] | 500 to 5000 | < 500 | < 500 |  |  | 
12 | C#Cc1cnc(-c2c[nH]c3ncc(Cl)cc23)nc1N[C@@H](C)C(=O)NCC(F)(F)F [Compound 411] | 500 to 5000 | < 500 | < 500 |  |  | 
13 | C[C@H](Nc1nc(-c2c[nH]c3ncc(Cl)cc23)ncc1F)C(=O)NCCN1CCNC1=O [Compound 441] | 500 to 5000 | 500 to 5000 |  | 500 to 5000 |  | 500 to 5000
14 | C[C@H](Nc1nc(-c2c[nH]c3ncc(Cl)cc23)ncc1F)C(=O)NCCCn1ccnc1 [Compound 442] | 500 to 5000 | < 500 |  | 500 to 5000 |  | 500 to 5000
15 | COc1ccccc1OCCNC(=O)[C@H](C)Nc1nc(-c2c[nH]c3ncc(Cl)cc23)ncc1F [Compound 453] | 500 to 5000 | 500 to 5000 |  | 500 to 5000 |  | 
16 | CN(C)CC[C@H](Nc1nc(-c2c[nH]c3ncc(Cl)cc23)ncc1F)C(=O)N(C)C [Compound 456] | 500 to 5000 | < 500 |  | 500 to 5000 |  | 
